In paper PMC8113020 (Chemistry of Heterocyclic Compounds, 2021):

System: Coxsackie B3 virus (strain Nancy)
Test: microbe, parasite or virus in culture
Format: cell-based
Settings: Enterovirus B, B3, Vero, 48 h, read-out: IC50 (50% inhibitory concentration)

## NC(=O)c1ncn([C@@H]2O[C@H](CO)[C@@H](O)[C@H]2O)n1 [Ribavirin]
  IC50: 56 ± 8 µM
